Measurements reported in the NIST ThermoML archive (doi:10.1021/je060158k).

Conditions: 100 kPa, Liquid, Capillary tube (Ostwald / Ubbelohde) method

CCCCCCI [1-iodohexane]
Conditions | kinematic viscosity [m2/s]
297.25 K | 9.1e-07
298.15 K | 9.03e-07
298.25 K | 9e-07
300.25 K | 8.74e-07
318.15 K | 7.01e-07
319.15 K | 6.89e-07
323.15 K | 6.63e-07
328.15 K | 6.26e-07
333.15 K | 5.97e-07
338.15 K | 5.68e-07
343.15 K | 5.39e-07
348.15 K | 5.18e-07
358.15 K | 4.74e-07
368.15 K | 4.37e-07
383.15 K | 3.91e-07
393.15 K | 3.64e-07
413.15 K | 3.19e-07
423.15 K | 3.01e-07

CCCCCCCCCCl [1-chlorononane]
Conditions | kinematic viscosity [m2/s]
296.21 K | 1.68e-06
300.65 K | 1.57e-06
313.15 K | 1.3e-06
318.15 K | 1.21e-06
323.15 K | 1.13e-06
328.15 K | 1.07e-06
333.15 K | 1e-06
338.15 K | 9.48e-07
343.15 K | 8.97e-07
348.15 K | 8.52e-07
353.15 K | 8.09e-07
358.15 K | 7.72e-07
363.15 K | 7.37e-07
368.15 K | 7.04e-07
373.15 K | 6.73e-07
383.15 K | 6.19e-07
393.15 K | 5.72e-07
403.15 K | 5.31e-07
413.15 K | 4.94e-07

CCCCCCCI [1-iodoheptane]
Conditions | kinematic viscosity [m2/s]
296.35 K | 1.18e-06
297.2 K | 1.17e-06
303.5 K | 1.06e-06
313.2 K | 9.24e-07
318.15 K | 8.67e-07
323.15 K | 8.12e-07
328.15 K | 7.66e-07
333.15 K | 7.25e-07
338.15 K | 6.87e-07
343.15 K | 6.53e-07
348.15 K | 6.2e-07
353.15 K | 5.91e-07
363.15 K | 5.41e-07
368.15 K | 5.17e-07
373.15 K | 4.98e-07
378.15 K | 4.76e-07
383.15 K | 4.58e-07
393.15 K | 4.24e-07
403.15 K | 3.96e-07
413.15 K | 3.7e-07
423.15 K | 3.46e-07
